# Experimental data published in patent US20220347085A1, “REPELLENT COMPOSITION AND USES” (Université Bourgogne, priority 2019, published 2022).
# Tested on: Drosophila melanogaster
# Assay: Test in a box (repellent effect), Drosophila melanogaster
# Assay type: in vivo
# Conditions: 1250 cm^3 box; for courtship and copulation in the box / survival of flies in the box: 24 hours
# Protocol: 2. Tests “in a Box” (Repellent Effect)
# The sensitivity of the drosophilae was evaluated over a period of between 0 minutes and 24 hours, according to the conditions (see results) in closed and transparent boxes of 1250 cm^3.
# An odor source, i.e. a composition comprising butyric acid or propionic acid in paraffin oil, was deposited on a filter paper at the base of a 50 mm petri dish. The petri dish is introduced into a test box and covered with a gauze Securimed M8202 sterile gauze pad) in order to prevent the flies from getting stuck on the oily odorous compound.
# The concentrations used were 2%, 6% or 20% propionic acid.
# A second Petri dish containing 5 to 6 grams of synthetic food used for breeding drosophilae in laboratories was placed in the test box, i.e. 6.5% maize flour, 6.5% (v/v) yeast extract, 1% (v/v) agar-agar, and 3% (v/v) of a 0.1% (v/v) antifungal solution (Tegosept (Apex)) in ethanol at 95%. This latter provides the water and/or the food which the flies needed during the test, and eliminated the possibility of an event due to dehydration of the individuals tested.
# Drosophila melanogaster or suzukii were then introduced by groups into the test box, and moved there freely over time. Their behavior in the presence of a composition as mentioned above was observed and photographed (Apple iPhone 6S).
smiles,measurement,setting,value
CCC(=O)O [propionic acid],courtship and copulation in the box,2% in paraffin oil,court and copulate
same,survival of flies in the box,2% in paraffin oil,still alive after 24 hours
same,courtship and copulation in the box,6% in paraffin oil,court and copulate
same,survival of flies in the box,6% in paraffin oil,still alive after 24 hours
same,anesthesia at a distance in the box,20% in solvent,anesthetized in the test hour
same,repellent behavior (location of flies relative to odor source),20% in solvent,keep away from the filter paper
